Experimental data published in patent US20250188113A1, “HIGH PURITY NON-ANIMAL DERIVED TUDCA” (SANDHILL ONE, LLC, priority 2021, published 2025).

Legend:
[1] = DVS mass change (moisture sorption); format: physicochemical
[2] = Crystallinity of Pattern L upon drying (XRPD); format: physicochemical; settings: dried in a 50° C. oven under −29.5 in Hg for 3 h
Experimental: Pattern L was prepared by the slurry method. In this experiment, 205.4 mg of solid commercial-grade plant derived TUDCA was mixed with 2.2 mL of IPAc:MeOH (7.3:2.9 vol.) in a 4 mL vial at 50° C. The mixture was sonicated for 1 h and stirred for 15 min at 400 rpm, after which it was filtered and analyzed by XRPD. […] As this pattern was a possible hydrate, it was placed in a humidity chamber at 55% RH to see if the crystallinity would increase. The yield was 114.6 mg […].

| Compound | DVS mass change 5-95% RH (wt. %) [1] | further results |
| --- | --- | --- |
| CC(C)NC(C)C.C[C@H](CCC(=O)O)[C@H]1CC[C@H]2[C@@H]3C(=O)C[C@@H]4CC(=O)CC[C@]4(C)[C@H]3CC[C@]12C [Diisopropylamine salt, diisopropylamine salt of 3,7-DKCA] | 2.53 wt. % |  |
| C[C@H](CCC(=O)O)[C@H]1CC[C@H]2[C@@H]3C(=O)C[C@@H]4CC(=O)CC[C@]4(C)[C@H]3CC[C@]12C.NCCN [Ethylenediamine salt, ethylenediamine salt of 3,7-DKCA] | 19.60 wt. % |  |
| CC(CCC(=O)NCCS(=O)(=O)O)C1CCC2C3C(O)CC4CC(O)CCC4(C)C3CCC12C.N=C(N)NCCCC(N)C(=O)O [Pattern 1-A (L-arginine), L-arginine TUDCA] |  | DVS mass change 2-80% RH (wt. %) ([1]; 2-80% RH): 2.91 wt. % |
| C[C@H](CCC(=O)NCCS(=O)(=O)O)[C@H]1CC[C@H]2[C@@H]3[C@@H](O)C[C@@H]4C[C@H](O)CC[C@]4(C)[C@H]3CC[C@]12C [Pattern A, Tauroursodeoxycholic acid] |  | DVS mass change 2-95% RH (wt. %) ([1]; 2-95% RH): 0.96 wt. % |
| C[C@H](CCC(=O)NCCS(=O)(=O)O)[C@H]1CC[C@H]2[C@@H]3[C@@H](O)C[C@@H]4C[C@H](O)CC[C@]4(C)[C@H]3CC[C@]12C [Pattern L, Tauroursodeoxycholic acid] |  | Crystallinity upon drying [2]: decrease |
| CC(C)(C)N.C[C@H](CCC(=O)O)[C@H]1CC[C@H]2[C@@H]3C(=O)C[C@@H]4CC(=O)CC[C@]4(C)[C@H]3CC[C@]12C [tert-Butylamine salt, tert-butylamine salt of 3,7-DKCA] | 10.89 wt. % |  |
